From paper PMC8401933 (Molecules, 2021)

Columns and labels:
Assay in all cases: KINOMEscan binding
Conditions in all cases: read-out: Percent Control
PIK4CB = target: T1, PIK4CB (Homo sapiens, UniProt Q9UBF8)
T1 construct: purchased Eurofins DiscoverX KINOMEscan

CAMK2A = target: T2, CAMK2A (Homo sapiens, UniProt Q9UQM7)
T2 construct: purchased Eurofins DiscoverX KINOMEscan

WNK2 = target: T3, WNK2 (Homo sapiens, UniProt Q9Y3S1)
T3 construct: purchased Eurofins DiscoverX KINOMEscan

PIP5K2C = target: T4, PIP5K2C (Homo sapiens, UniProt Q8TBX8)
T4 construct: purchased Eurofins DiscoverX KINOMEscan

MST3 = target: T5, MST3 (Homo sapiens, UniProt Q9Y6E0)
T5 construct: purchased Eurofins DiscoverX KINOMEscan
T5 sequence (Q9Y6E0 whole entry): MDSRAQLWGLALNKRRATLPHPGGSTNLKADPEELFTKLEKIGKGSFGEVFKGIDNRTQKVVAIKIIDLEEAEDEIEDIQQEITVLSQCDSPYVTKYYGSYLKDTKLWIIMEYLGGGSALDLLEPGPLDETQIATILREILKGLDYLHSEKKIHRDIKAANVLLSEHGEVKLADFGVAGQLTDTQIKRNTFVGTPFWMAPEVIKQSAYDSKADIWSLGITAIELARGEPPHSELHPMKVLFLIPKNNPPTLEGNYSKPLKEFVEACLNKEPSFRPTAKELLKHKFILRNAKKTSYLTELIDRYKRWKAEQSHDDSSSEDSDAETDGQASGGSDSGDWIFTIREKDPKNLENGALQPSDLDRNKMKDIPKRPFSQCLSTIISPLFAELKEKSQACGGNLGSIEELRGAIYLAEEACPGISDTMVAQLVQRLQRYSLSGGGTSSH

FES = target: T6, FES (Homo sapiens, UniProt P07332)
T6 construct: purchased Eurofins DiscoverX KINOMEscan

[1] = target: T7, JAK3(JH1domain-catalytic) (Homo sapiens, UniProt P52333)
T7 construct: JAK3(JH1domain-catalytic); purchased Eurofins DiscoverX KINOMEscan

YES = target: T8, YES (Homo sapiens, UniProt P07947)
T8 construct: purchased Eurofins DiscoverX KINOMEscan

HUNK = target: T9, HUNK (Homo sapiens, UniProt P57058)
T9 construct: purchased Eurofins DiscoverX KINOMEscan

MRCKA = target: T10, MRCKA (Homo sapiens, UniProt Q5VT25)
T10 construct: purchased Eurofins DiscoverX KINOMEscan

DYRK1B = target: T11, DYRK1B (Homo sapiens, UniProt Q9Y463)
T11 construct: purchased Eurofins DiscoverX KINOMEscan
T11 sequence (Q9Y463 whole entry): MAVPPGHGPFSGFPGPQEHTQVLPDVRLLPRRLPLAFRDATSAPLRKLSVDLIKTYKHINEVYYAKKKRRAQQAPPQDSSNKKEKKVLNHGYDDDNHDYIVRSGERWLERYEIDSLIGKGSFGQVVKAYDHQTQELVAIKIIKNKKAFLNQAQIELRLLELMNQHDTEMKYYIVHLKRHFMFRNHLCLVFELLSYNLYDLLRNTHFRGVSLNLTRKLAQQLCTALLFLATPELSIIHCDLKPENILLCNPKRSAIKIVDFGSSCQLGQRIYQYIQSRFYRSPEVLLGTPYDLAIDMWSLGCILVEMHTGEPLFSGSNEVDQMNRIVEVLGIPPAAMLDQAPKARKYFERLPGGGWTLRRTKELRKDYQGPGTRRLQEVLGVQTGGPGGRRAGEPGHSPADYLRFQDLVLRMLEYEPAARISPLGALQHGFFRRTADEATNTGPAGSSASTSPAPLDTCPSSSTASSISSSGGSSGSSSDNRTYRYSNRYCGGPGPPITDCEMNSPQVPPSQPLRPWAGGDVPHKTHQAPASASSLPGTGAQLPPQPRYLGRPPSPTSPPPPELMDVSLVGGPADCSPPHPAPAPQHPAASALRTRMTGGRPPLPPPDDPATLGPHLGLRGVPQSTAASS

KIT(V559D,T670I) = target: T12, KIT(V559D,T670I) (Homo sapiens, UniProt P10721, T670I/V559D)
T12 construct: purchased Eurofins DiscoverX KINOMEscan

PRKCD = target: T13, PRKCD (Homo sapiens, UniProt Q05655)
T13 construct: purchased Eurofins DiscoverX KINOMEscan

OSR1 = target: T14, OSR1 (Homo sapiens, UniProt O95747)
T14 construct: purchased Eurofins DiscoverX KINOMEscan

ULK2 = target: T15, ULK2 (Homo sapiens, UniProt Q8IYT8)
T15 construct: purchased Eurofins DiscoverX KINOMEscan

MEK3 = target: T16, MEK3 (Homo sapiens, UniProt P46734)
T16 construct: purchased Eurofins DiscoverX KINOMEscan
T16 sequence (P46734 whole entry): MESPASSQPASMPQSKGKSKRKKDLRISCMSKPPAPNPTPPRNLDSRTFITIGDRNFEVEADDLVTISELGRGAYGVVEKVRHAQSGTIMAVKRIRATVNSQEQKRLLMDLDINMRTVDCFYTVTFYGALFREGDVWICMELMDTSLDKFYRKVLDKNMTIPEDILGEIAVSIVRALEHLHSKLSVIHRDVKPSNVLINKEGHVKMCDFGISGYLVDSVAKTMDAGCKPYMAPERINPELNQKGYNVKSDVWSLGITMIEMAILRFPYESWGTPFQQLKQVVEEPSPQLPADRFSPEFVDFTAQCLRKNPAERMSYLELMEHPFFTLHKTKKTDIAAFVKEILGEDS

ASK2 = target: T17, ASK2 (Homo sapiens, UniProt O95382)
T17 construct: purchased Eurofins DiscoverX KINOMEscan

LKB1 = target: T18, LKB1 (Homo sapiens, UniProt Q15831)
T18 construct: purchased Eurofins DiscoverX KINOMEscan
T18 sequence (Q15831 whole entry): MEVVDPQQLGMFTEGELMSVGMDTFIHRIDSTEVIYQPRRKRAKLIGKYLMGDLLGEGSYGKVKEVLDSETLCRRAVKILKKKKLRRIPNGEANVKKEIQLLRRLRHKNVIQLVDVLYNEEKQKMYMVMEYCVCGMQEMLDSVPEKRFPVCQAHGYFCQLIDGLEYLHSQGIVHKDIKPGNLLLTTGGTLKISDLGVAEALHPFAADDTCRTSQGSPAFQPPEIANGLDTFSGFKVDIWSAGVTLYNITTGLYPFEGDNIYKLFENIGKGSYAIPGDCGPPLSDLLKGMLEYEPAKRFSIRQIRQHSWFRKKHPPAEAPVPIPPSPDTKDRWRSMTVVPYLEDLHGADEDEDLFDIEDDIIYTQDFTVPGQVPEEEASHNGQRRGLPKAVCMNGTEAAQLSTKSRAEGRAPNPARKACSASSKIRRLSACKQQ

[2] = target: T19, RSK3(Kin.Dom.2-C-terminal) (Homo sapiens, UniProt Q15349)
T19 construct: RSK3(Kin.Dom.2-C-terminal); purchased Eurofins DiscoverX KINOMEscan

[3] = target: T20, ABL1(H396P)-nonphosphorylated (Homo sapiens, UniProt P00519, H396P)
T20 construct: purchased Eurofins DiscoverX KINOMEscan

SLK = target: T21, SLK (Homo sapiens, UniProt Q9H2G2)
T21 construct: purchased Eurofins DiscoverX KINOMEscan

SRPK1 = target: T22, SRPK1 (Homo sapiens, UniProt Q96SB4)
T22 construct: purchased Eurofins DiscoverX KINOMEscan
T22 sequence (Q96SB4 whole entry): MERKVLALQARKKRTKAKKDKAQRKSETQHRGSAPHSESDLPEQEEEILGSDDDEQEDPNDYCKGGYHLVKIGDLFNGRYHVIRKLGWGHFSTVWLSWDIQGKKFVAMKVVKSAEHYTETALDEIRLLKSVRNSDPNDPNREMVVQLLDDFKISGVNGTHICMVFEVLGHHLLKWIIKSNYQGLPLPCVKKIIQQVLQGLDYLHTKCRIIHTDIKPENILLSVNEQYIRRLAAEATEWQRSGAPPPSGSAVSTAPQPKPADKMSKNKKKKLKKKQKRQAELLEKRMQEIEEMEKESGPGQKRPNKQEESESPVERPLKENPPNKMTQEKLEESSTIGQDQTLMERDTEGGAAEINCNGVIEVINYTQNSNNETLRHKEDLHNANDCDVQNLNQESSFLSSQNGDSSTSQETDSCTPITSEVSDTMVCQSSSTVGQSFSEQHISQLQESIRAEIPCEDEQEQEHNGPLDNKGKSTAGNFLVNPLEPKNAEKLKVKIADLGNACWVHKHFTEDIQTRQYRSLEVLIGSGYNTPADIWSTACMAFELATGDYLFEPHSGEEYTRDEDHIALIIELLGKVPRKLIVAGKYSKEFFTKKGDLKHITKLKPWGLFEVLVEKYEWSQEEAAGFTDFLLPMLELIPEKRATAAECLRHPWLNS

[4] = target: T23, RSK1(Kin.Dom.1-N-terminal) (Homo sapiens, UniProt Q15418)
T23 construct: RSK1(Kin.Dom.1-N-terminal); purchased Eurofins DiscoverX KINOMEscan

[5] = target: T24, RPS6KA5(Kin.Dom.1-N-terminal) (Homo sapiens, UniProt O75582)
T24 construct: RPS6KA5(Kin.Dom.1-N-terminal); purchased Eurofins DiscoverX KINOMEscan

ADCK3 = target: T25, ADCK3 (Homo sapiens, UniProt Q8NI60)
T25 construct: purchased Eurofins DiscoverX KINOMEscan

NDR1 = target: T26, NDR1 (Homo sapiens, UniProt Q15208)
T26 construct: purchased Eurofins DiscoverX KINOMEscan
T26 sequence (Q15208 whole entry): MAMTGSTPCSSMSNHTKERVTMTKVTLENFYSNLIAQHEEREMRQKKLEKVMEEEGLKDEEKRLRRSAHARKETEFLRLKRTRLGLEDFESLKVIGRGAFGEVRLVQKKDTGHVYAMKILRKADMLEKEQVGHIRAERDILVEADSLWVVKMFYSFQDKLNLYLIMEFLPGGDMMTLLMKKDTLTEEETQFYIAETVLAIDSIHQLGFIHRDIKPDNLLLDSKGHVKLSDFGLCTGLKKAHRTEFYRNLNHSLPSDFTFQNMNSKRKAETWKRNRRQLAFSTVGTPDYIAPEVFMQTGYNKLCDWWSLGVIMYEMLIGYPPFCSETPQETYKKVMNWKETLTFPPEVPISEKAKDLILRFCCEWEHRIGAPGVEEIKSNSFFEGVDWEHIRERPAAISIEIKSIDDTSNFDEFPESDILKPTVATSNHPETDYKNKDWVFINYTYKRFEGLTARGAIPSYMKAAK

MST1 = target: T27, MST1 (Homo sapiens, UniProt Q13043)
T27 construct: purchased Eurofins DiscoverX KINOMEscan

[6] = target: T28, JAK2(JH1domain-catalytic) (Homo sapiens, UniProt O60674)
T28 construct: JAK2(JH1domain-catalytic); purchased Eurofins DiscoverX KINOMEscan

LIMK1 = target: T29, LIMK1 (Homo sapiens, UniProt P53667)
T29 construct: purchased Eurofins DiscoverX KINOMEscan

PIK3CA(H1047L) = target: T30, PIK3CA(H1047L) (Homo sapiens, UniProt P42336, H1047L)
T30 construct: purchased Eurofins DiscoverX KINOMEscan

PLK3 = target: T31, PLK3 (Homo sapiens, UniProt Q9H4B4)
T31 construct: purchased Eurofins DiscoverX KINOMEscan
T31 sequence (Q9H4B4 whole entry): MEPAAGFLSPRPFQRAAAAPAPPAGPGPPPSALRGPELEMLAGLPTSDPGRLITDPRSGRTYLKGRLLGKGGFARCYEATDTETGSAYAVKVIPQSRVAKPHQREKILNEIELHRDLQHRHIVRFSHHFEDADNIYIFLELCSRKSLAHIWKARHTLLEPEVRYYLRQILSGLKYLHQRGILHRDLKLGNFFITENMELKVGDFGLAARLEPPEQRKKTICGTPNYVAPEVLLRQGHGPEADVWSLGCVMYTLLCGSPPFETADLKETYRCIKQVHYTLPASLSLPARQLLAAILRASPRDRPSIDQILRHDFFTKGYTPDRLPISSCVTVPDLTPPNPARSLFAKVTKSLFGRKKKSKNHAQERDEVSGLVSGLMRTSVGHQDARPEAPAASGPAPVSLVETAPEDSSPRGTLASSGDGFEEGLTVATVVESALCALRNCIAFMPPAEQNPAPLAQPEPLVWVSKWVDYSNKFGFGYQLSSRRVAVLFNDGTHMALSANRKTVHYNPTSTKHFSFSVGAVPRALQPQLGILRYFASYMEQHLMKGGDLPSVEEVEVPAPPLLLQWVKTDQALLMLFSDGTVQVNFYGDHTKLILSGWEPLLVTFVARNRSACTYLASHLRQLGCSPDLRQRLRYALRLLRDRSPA

TNIK = target: T32, TNIK (Homo sapiens, UniProt Q9UKE5)
T32 construct: purchased Eurofins DiscoverX KINOMEscan

PIK3CA(Q546K) = target: T33, PIK3CA(Q546K) (Homo sapiens, UniProt P42336, Q546K)
T33 construct: purchased Eurofins DiscoverX KINOMEscan

INSR = target: T34, INSR (Homo sapiens, UniProt P06213)
T34 construct: purchased Eurofins DiscoverX KINOMEscan

MKNK2 = target: T35, MKNK2 (Homo sapiens, UniProt Q9HBH9)
T35 construct: purchased Eurofins DiscoverX KINOMEscan
T35 sequence (Q9HBH9 whole entry): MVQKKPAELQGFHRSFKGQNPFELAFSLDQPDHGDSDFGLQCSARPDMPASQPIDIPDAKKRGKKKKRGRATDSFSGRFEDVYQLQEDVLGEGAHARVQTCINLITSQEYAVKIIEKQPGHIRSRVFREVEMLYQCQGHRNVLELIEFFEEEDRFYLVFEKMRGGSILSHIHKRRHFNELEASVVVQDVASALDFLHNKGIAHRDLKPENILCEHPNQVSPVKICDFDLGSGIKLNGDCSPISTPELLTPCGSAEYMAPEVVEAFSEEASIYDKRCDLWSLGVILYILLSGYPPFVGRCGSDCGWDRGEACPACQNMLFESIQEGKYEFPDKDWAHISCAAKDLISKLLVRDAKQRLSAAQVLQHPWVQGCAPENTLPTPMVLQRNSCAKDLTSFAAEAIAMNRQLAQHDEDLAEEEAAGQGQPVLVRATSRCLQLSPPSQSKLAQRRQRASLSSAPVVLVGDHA

RIPK5 = target: T36, RIPK5 (Homo sapiens, UniProt Q6XUX3)
T36 construct: purchased Eurofins DiscoverX KINOMEscan
T36 sequence (Q6XUX3 whole entry): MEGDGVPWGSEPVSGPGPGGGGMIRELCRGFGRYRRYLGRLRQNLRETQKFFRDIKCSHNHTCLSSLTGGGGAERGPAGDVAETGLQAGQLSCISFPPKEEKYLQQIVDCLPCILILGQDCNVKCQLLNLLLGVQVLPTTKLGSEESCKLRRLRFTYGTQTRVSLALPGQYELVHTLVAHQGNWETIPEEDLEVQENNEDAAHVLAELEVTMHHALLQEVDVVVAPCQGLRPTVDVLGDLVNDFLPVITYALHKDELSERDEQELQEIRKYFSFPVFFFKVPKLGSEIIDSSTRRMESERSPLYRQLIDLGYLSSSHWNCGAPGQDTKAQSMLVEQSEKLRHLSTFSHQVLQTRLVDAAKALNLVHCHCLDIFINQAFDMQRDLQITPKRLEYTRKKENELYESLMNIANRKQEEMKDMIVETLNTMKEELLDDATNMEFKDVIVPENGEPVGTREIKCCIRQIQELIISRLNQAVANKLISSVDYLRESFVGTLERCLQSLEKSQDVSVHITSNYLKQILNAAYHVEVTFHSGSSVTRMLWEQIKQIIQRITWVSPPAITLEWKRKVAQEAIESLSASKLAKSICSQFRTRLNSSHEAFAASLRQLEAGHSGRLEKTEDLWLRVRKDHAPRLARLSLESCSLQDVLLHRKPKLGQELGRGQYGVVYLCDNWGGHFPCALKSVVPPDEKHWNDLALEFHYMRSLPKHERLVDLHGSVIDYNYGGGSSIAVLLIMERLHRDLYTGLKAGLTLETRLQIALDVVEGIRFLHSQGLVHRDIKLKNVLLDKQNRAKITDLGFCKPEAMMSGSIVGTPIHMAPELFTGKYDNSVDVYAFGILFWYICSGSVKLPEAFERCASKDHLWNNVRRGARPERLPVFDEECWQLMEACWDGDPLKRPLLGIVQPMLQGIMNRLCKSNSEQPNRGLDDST

PLK1 = target: T37, PLK1 (Homo sapiens, UniProt P53350)
T37 construct: purchased Eurofins DiscoverX KINOMEscan

KIT(L576P) = target: T38, KIT(L576P) (Homo sapiens, UniProt P10721, L576P)
T38 construct: purchased Eurofins DiscoverX KINOMEscan

PIK3CA(E545A) = target: T39, PIK3CA(E545A) (Homo sapiens, UniProt P42336, E545A)
T39 construct: purchased Eurofins DiscoverX KINOMEscan

PHKG2 = target: T40, PHKG2 (Homo sapiens, UniProt P15735)
T40 construct: purchased Eurofins DiscoverX KINOMEscan

QSK = target: T41, QSK (Homo sapiens, UniProt Q9Y2K2)
T41 construct: purchased Eurofins DiscoverX KINOMEscan

Compound CC(C)NC(=O)COc1cccc(-c2nc(Nc3ccc4[nH]ncc4c3)c3ccccc3n2)c1 [KD025, 2-(3-(4-((1H-indazol-5-yl)amino)quinazolin-2-yl)phenoxy)-N-isopropylacetamide] has a remaining binding at 10 µM (PIK4CB) of 92%, a remaining binding at 10 µM (CAMK2A) of 87% and a remaining binding at 10 µM (WNK2) of 88%. For the same compound, the remaining binding at 10 µM (PIP5K2C) was 71%, the remaining binding at 10 µM (MST3) was 72% and the remaining binding at 10 µM (FES) was 94%. It also gave a remaining binding at 10 µM [1] of 94%, a remaining binding at 10 µM (YES) of 71% and a remaining binding at 10 µM (HUNK) of 100%. The remaining binding at 10 µM (MRCKA) was 57%, the remaining binding at 10 µM (DYRK1B) was 64% and the remaining binding at 10 µM (KIT(V559D,T670I)) was 98%. The remaining binding at 10 µM (PRKCD) was 70%, the remaining binding at 10 µM (OSR1) was 100% and the remaining binding at 10 µM (ULK2) was 87%. The remaining binding at 10 µM (MEK3) was 77%, the remaining binding at 10 µM (ASK2) was 95% and the remaining binding at 10 µM (LKB1) was 63%. For the same compound, the remaining binding at 10 µM [2] was 89%, the remaining binding at 10 µM [3] was 90% and the remaining binding at 10 µM (SLK) was 59%. The remaining binding at 10 µM (SRPK1) was 7%, the remaining binding at 10 µM [4] was 7.8% and the remaining binding at 10 µM [5] was 100%. The remaining binding at 10 µM (ADCK3) was 78%, the remaining binding at 10 µM (NDR1) was 73% and the remaining binding at 10 µM (MST1) was 82%. The remaining binding at 10 µM [6] was 51%, the remaining binding at 10 µM (LIMK1) was 92% and the remaining binding at 10 µM (PIK3CA(H1047L)) was 82%. The remaining binding at 10 µM (PLK3) was 72%, the remaining binding at 10 µM (TNIK) was 100% and the remaining binding at 10 µM (PIK3CA(Q546K)) was 84%. For the same compound, the remaining binding at 10 µM (INSR) was 94%, the remaining binding at 10 µM (MKNK2) was 68% and the remaining binding at 10 µM (RIPK5) was 64%. For the same compound, the remaining binding at 10 µM (PLK1) was 100%, the remaining binding at 10 µM (KIT(L576P)) was 74% and the remaining binding at 10 µM (PIK3CA(E545A)) was 65%. The remaining binding at 10 µM (PHKG2) was 100% and the remaining binding at 10 µM (QSK) was 88%.
